Biological target: C5 (Homo sapiens, UniProt P01031)
Format: cell-based

Sequence of C5 (P01031 678-1676): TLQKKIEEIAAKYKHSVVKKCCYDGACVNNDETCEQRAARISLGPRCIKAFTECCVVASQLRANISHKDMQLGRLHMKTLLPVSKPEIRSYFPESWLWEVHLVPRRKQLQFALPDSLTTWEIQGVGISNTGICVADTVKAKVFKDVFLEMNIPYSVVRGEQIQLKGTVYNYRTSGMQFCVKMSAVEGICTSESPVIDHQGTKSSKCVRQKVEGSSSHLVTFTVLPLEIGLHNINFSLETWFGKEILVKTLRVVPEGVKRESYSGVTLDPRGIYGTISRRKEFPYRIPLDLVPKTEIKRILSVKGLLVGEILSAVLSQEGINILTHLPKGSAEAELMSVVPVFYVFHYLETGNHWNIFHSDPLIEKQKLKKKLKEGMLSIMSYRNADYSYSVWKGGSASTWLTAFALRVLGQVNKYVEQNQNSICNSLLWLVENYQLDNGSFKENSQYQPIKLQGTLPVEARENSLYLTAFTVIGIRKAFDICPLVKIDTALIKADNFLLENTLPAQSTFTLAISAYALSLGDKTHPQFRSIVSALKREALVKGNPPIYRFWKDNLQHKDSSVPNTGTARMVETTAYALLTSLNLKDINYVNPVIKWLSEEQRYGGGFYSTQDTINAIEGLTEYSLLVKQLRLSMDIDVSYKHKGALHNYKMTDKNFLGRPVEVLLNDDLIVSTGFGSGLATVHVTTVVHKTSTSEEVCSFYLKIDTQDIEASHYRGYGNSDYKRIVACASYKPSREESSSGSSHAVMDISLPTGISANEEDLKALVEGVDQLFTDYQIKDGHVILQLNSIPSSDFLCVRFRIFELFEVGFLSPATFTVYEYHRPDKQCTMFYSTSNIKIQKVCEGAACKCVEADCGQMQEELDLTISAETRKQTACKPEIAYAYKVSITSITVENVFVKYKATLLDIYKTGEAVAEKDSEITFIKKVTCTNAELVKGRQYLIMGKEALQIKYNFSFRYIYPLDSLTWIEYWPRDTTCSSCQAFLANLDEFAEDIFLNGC
Sequence of C5 (P01031 19-673): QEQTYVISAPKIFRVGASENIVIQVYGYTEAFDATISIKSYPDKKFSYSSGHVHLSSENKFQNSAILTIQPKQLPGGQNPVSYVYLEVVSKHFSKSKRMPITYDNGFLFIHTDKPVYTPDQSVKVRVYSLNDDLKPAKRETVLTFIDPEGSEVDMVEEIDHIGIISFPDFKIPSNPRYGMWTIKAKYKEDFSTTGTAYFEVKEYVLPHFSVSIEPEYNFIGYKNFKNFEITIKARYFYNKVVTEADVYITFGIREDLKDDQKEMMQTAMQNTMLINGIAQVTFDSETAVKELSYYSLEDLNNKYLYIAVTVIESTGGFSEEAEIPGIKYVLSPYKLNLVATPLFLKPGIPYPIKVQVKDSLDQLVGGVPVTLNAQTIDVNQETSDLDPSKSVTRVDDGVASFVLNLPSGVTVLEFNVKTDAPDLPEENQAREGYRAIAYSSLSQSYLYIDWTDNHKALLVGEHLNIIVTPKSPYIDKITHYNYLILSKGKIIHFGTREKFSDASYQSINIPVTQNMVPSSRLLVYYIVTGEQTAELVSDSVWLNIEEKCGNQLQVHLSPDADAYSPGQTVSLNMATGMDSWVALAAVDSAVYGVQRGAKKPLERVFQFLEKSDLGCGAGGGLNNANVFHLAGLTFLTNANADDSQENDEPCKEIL

Eculizumab
effect of C5 inhibition on MRB LCMV G neutralization: able to prevent viral neutralization

Source: patent US20190282640A1 (priority 2016, published 2019)
